According to patent publication US20250114430A1, “MODIFIED PEPTIDOMIMETICS AND METHODS OF USE” (The University of North Carolina at Chapel Hill, priority 2021, published 2025):
Non-standard residues stand in square brackets, D forms with d. No end group written: not given here.

Legend:
[1] = molecular target: T1, human neutrophil elastase (Homo sapiens, UniProt P08246); format: in vitro ADME
T1 sequence (P08246 30-267): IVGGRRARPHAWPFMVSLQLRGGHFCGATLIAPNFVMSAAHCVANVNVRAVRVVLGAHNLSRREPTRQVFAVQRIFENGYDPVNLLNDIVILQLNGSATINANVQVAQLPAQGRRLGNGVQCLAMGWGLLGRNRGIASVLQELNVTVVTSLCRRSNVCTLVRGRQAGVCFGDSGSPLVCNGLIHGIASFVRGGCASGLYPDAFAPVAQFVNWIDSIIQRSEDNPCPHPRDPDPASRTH
Experimental: Peptides were exposed to NE over time, and the reaction was stopped by addition of sivelestat. HPLC was then performed in order to determine peptide stability. N=3-4 replicates per time point.
HEK293T cells were plated and incubated for 2 hours with Fluo-4 plus or minus ELD peptides, with fluorescent images taken every 30 seconds for 2-6 minutes at excitation/emission wavelengths of 488/530 nm. […] Candidate peptides ELD604, 607, 601, and 100 were tested for resistance against protease degradation, wherein the peptides were incubated with neutrophil elastase, treated with the elastase inhibitor sivelestat at various timepoints to halt ongoing reactions, and then analyzed by HPLC (FIG. 9).
Endogenous Orai1/store operated Ca^2+ influx have been extensively studied in HEK293T cells, so this cell type was used to understand ELD607-Orai1 interactions. […] Thapsigargin is a SERCA pump inhibitor that prevents uptake of cytosolic Ca^2+ into the endoplasmic reticulum. Thapsigargin is commonly used to stimulate Orai1/store operated Ca^2+ influx. […] Dynamic light scattering (DLS) was used to evaluate binding of ELD607 to peptides of Orai1 extracellular loops. […] Thus, it was concluded that ELD607 interacts with Orai1.

[2] = test system: SARS-CoV-2 S1 pseudovirus; format: cell-based
HEK293T cells = assay: Cytoplasmic Ca^2+ (Fluo-4) in HEK293T cells incubated with ELD peptides; format: cell-based; conditions: 2 hours with Fluo-4 plus or minus peptide
P. aeruginosa [3] = assay: P. aeruginosa infection in WT mice, ELD607 versus comparators; format: in vivo; conditions: WT mice infected with P. aeruginosa
Description: We then infected WT mice with P. aeruginosa and treated with ELD607, the Orai1 small molecule antagonist […], dexamethasone or scrambled ELD607.

P. aeruginosa [4] = assay: P. aeruginosa growth in the presence of peptide; format: cell-based; conditions: in vitro
Orai1 = Orai1 (Homo sapiens, UniProt Q96D31); assay: Dose response of Ca^2+ influx (SOCE), Ca^2+ add back approach, HEK293T cells; format: cell-based; parameters: Endogenous Orai1/store operated Ca^2+ influx have been extensively studied in HEK293T cells; endogenous in cells; host or cells: HEK293T
Sequence of Orai1 (Q96D31 whole entry): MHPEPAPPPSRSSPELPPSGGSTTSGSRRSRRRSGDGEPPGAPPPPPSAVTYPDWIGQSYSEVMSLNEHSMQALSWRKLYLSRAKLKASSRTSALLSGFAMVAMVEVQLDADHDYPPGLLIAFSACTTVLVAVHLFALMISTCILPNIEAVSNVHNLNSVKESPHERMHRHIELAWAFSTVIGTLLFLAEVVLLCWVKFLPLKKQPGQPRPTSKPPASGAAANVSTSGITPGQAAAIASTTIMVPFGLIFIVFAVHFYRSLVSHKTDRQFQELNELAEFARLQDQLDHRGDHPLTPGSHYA
Experimental: HEK293T cells were cultured in 384 well plates. Cells were then exposed to vehicle or […] ELD607 for 1 h. 100 nM thapsigargin was then added followed by extracellular Ca^2+ to differentiate ER Ca^2+ release and SOCE. n=8-12 cultures per data point.
ELD607 requires Orai1 expression to inhibit Ca^2+ signaling. […] Using this approach, curves were fitted to the data and the 50% inhibitory concentrations (IC50S) were calculated.

| Molecule | stability against neutrophil elastase [1] | pseudovirus infection (% DsRed-positive cells) [2] | cytoplasmic calcium levels as compared to a control scrambled peptide (HEK293T cells) | further results |
| --- | --- | --- | --- | --- |
| HDINMLIHG [ELD601, HDINMLIHG] | still degraded by elastase | – | – | – |
| n-VHDIVNMLIHG-n (VHDIVNMLIHG-NH2; not fully specified; also: N-terminal amidation) [ELD621] | – | inhibited viral replication | reduced cytoplasmic calcium levels | – |
| Cc1nnsc1C(=O)Nc1ccc(-n2nc(C(F)(F)F)cc2C(F)(F)F)cc1 [YM-58453, reference compound] | – | – | – | neutrophilia, weight loss, bacterial infections and lung macrophage levels (these parameters) (P. aeruginosa [3]): neither −58453, dexamethasone nor scrambled ELD607 had any significant effects |
| O=C(O)c1cn(C2CC2)c2cc(N3CCNCC3)c(F)cc2c1=O [ciproflaxin, reference compound] | – | – | – | P. aeruginosa growth (P. aeruginosa [4]): fully inhibited bacterial growth |
| DITLVHDIVNMLIHGL [ELD100, DITLVHDIVNMLIHGL] | not neutrophil elastase resistant | – | – | IC50 (Orai1; Ca^2+ influx, HEK293T, 100 nM thapsigargin, read-out: IC50 (Molar)): 37 nM; Bottom (%) (Orai1; fitted curve bottom, text: maximal inhibitions): 57.03% |
| a-HDIVNMLIH-a ([dA]HDIVNMLIH[dA]) [ELD604] | significantly more stable | inhibited viral replication | reduced cytoplasmic calcium levels | – |
